Key:
Assay in all cases: scanMAX Kinase assay panel
Format in all cases: binding
[1] = molecular target: PRKCD (Homo sapiens (Human), UniProt Q05655); details: read-out: % control
How it was run: (§1)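 Using scanMAX, compound selectivity across kinases is determined. The output is % control, bounded by a DMSO control at 100% and a reference positive compound at 0%.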

[2] = molecular target: TNIK (Homo sapiens (Human), UniProt Q9UKE5); details: read-out: % control
How it was run: as §1

[3] = molecular target: SBK1 (Homo sapiens (Human), UniProt Q52WX2); details: read-out: % control
How it was run: as §1

[4] = molecular target: MARK4 (Homo sapiens (Human), UniProt Q96L34); details: read-out: % control
How it was run: as §1

[5] = molecular target: FYN (Homo sapiens (Human), UniProt P06241); details: read-out: % control
How it was run: as §1

[6] = molecular target: MST4 (Homo sapiens (Human), UniProt Q9P289); details: read-out: % control
How it was run: as §1

[7] = molecular target: FGFR2 (Homo sapiens (Human), UniProt P21802); details: read-out: % control
How it was run: as §1

[8] = molecular target: CDK4 (Homo sapiens (Human), UniProt P11802); details: read-out: % control
Chain of CDK4 (P11802 whole entry): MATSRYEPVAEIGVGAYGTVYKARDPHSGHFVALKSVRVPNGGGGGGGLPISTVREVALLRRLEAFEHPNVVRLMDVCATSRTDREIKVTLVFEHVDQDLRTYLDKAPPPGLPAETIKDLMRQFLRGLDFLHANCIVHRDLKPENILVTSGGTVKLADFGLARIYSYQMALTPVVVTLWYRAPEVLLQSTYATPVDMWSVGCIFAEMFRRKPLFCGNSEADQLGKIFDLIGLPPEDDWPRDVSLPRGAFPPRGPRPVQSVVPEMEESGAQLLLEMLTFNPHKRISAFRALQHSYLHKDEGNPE
How it was run: as §1

[9] = tested on: FLT3(ITD, D835V); details: 1 uM
How it was run: as §1

[10] = molecular target: PDPK1 (Homo sapiens (Human), UniProt O15530); details: read-out: % control
Chain of PDPK1 (O15530 whole entry): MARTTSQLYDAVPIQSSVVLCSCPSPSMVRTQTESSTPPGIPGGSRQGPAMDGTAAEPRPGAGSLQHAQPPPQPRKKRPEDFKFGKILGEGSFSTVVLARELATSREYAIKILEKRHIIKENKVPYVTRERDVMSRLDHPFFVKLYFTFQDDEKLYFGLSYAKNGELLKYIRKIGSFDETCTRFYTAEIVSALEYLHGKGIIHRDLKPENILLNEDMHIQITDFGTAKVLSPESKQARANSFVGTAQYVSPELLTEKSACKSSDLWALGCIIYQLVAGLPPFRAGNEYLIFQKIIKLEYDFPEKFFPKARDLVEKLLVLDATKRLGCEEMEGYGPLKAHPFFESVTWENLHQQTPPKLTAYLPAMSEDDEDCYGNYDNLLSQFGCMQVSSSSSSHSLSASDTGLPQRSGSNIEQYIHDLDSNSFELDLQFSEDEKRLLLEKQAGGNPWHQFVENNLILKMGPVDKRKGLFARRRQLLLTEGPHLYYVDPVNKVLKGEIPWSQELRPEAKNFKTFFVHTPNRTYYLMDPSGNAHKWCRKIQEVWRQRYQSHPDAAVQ
How it was run: as §1

[11] = molecular target: EPHA7 (Homo sapiens (Human), UniProt Q15375); details: read-out: % control
Chain of EPHA7 (Q15375 28-998): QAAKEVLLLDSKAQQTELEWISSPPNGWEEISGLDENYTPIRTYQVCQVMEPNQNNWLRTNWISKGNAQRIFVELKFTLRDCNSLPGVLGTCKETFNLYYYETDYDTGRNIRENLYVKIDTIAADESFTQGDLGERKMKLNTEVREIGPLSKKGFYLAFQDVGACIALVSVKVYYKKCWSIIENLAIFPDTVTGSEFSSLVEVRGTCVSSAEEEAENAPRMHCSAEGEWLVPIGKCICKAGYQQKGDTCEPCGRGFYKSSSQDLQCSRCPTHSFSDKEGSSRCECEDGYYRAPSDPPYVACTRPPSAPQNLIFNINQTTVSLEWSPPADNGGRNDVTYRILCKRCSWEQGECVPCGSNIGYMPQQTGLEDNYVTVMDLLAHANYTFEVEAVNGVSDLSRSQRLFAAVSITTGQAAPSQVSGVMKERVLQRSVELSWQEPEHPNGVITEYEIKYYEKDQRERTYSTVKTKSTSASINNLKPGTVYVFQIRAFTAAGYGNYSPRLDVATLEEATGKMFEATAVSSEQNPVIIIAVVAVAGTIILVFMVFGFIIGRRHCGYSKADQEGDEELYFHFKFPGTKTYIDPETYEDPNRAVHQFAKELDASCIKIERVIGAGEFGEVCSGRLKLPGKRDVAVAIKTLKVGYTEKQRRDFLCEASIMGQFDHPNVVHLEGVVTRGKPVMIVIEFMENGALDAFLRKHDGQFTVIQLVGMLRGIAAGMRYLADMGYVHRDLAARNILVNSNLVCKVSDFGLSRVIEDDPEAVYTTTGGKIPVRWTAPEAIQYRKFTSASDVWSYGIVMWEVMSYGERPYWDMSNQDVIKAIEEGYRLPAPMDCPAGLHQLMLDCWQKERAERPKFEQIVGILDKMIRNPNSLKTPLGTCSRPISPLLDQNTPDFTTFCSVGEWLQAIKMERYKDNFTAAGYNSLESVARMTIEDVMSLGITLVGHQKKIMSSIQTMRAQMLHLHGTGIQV
How it was run: as §1

[12] = molecular target: CAMK2B (Homo sapiens (Human), UniProt Q13554); details: read-out: % control
How it was run: as §1

[13] = molecular target: PAK1 (Homo sapiens (Human), UniProt Q13153); details: read-out: % control
Chain of PAK1 (Q13153 whole entry): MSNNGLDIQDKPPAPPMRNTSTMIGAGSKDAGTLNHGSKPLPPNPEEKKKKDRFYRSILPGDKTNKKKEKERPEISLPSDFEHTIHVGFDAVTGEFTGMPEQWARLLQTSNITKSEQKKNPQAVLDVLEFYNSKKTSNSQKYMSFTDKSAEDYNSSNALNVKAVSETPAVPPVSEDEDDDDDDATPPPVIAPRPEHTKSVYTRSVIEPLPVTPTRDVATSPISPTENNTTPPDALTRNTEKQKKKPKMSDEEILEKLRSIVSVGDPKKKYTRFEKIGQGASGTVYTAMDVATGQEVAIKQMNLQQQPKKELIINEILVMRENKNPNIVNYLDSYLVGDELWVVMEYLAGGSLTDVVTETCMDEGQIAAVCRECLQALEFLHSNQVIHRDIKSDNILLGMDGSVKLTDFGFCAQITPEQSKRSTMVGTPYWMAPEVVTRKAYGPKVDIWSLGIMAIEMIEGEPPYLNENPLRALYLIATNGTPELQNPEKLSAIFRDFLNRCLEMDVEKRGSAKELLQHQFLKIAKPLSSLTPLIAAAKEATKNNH
How it was run: as §1

[14] = molecular target: ERK8 (Homo sapiens (Human), UniProt Q8TD08); details: read-out: % control
How it was run: as §1

[15] = molecular target: MTOR (Homo sapiens (Human), UniProt P42345); details: read-out: % control
How it was run: as §1

[16] = molecular target: KIT(D816H) (Homo sapiens (Human), UniProt P10721, D816H); details: read-out: % control
How it was run: as §1

[17] = molecular target: PIK3CA(H1047Y) (Homo sapiens (Human), UniProt P42336, H1047Y); details: read-out: % control
How it was run: as §1

[18] = molecular target: PRKCI (Homo sapiens (Human), UniProt P41743); details: read-out: % control
How it was run: as §1

[19] = molecular target: CDK2 (Homo sapiens (Human), UniProt P24941); details: read-out: % control
How it was run: as §1

[20] = molecular target: EGFR(L747-T751del, Sins) (Homo sapiens (Human), UniProt P00533, DEL747-751/INS746S); details: read-out: % control
How it was run: as §1

[21] = molecular target: DCAMKL3 (Homo sapiens (Human), UniProt Q9C098); details: read-out: % control
Chain of DCAMKL3 (Q9C098 whole entry, looked up): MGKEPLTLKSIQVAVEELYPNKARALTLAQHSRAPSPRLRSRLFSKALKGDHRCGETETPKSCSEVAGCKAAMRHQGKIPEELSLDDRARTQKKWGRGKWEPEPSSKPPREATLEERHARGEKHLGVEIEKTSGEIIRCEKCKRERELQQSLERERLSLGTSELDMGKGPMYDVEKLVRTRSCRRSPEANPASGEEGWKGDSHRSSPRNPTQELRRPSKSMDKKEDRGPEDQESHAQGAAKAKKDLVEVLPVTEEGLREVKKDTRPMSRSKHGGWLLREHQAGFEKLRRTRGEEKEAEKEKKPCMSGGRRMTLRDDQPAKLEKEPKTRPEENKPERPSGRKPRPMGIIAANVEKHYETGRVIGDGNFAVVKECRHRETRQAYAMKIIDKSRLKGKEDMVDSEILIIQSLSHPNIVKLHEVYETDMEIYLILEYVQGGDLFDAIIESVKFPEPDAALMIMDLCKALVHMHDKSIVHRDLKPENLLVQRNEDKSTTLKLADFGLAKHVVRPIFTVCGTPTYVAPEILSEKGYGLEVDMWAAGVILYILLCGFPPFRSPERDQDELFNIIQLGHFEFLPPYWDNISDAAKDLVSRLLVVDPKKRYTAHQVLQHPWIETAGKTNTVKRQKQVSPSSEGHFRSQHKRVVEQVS
How it was run: as §1

[22] = molecular target: BUB1 (Homo sapiens (Human), UniProt O43683); details: read-out: % control
How it was run: as §1

[23] = molecular target: PLK2 (Homo sapiens (Human), UniProt Q9NYY3); details: read-out: % control
How it was run: as §1

[24] = molecular target: LIMK2 (Homo sapiens (Human), UniProt P53671); details: read-out: % control
How it was run: as §1

[25] = molecular target: EPHB6 (Homo sapiens (Human), UniProt O15197); details: read-out: % control
How it was run: as §1

[26] = molecular target: PRKG2 (Homo sapiens (Human), UniProt Q13237); details: read-out: % control
How it was run: as §1

[27] = molecular target: LOK (Homo sapiens (Human), UniProt O94804); details: read-out: % control
How it was run: as §1

[28] = molecular target: LTK (Homo sapiens (Human), UniProt P29376); details: read-out: % control
How it was run: as §1

[29] = molecular target: MKNK2 (Homo sapiens (Human), UniProt Q9HBH9); details: read-out: % control
How it was run: as §1

[30] = molecular target: SGK3 (Homo sapiens (Human), UniProt Q96BR1); details: read-out: % control
How it was run: as §1

[31] = molecular target: CAMKK1 (Homo sapiens (Human), UniProt Q8N5S9); details: read-out: % control
How it was run: as §1

[32] = molecular target: STK36 (Homo sapiens (Human), UniProt Q9NRP7); details: read-out: % control
How it was run: as §1

[33] = molecular target: FLT1 (Homo sapiens (Human), UniProt P17948); details: read-out: % control
How it was run: as §1

[34] = molecular target: NEK7 (Homo sapiens (Human), UniProt Q8TDX7); details: read-out: % control
How it was run: as §1

[35] = molecular target: PIK3CB (Homo sapiens (Human), UniProt P42338); details: read-out: % control
How it was run: as §1

[36] = molecular target: TSSK3 (Homo sapiens (Human), UniProt Q96PN8); details: read-out: % control
How it was run: as §1

[37] = molecular target: AURKB (Homo sapiens (Human), UniProt Q96GD4); details: read-out: % control
How it was run: as §1

[38] = molecular target: RSK2(Kin.Dom.2-C-terminal) (Homo sapiens (Human), UniProt P51812); details: read-out: % control
How it was run: as §1

[39] = molecular target: MET(Y1235D) (Homo sapiens (Human), UniProt P08581, Y1235D); details: read-out: % control
How it was run: as §1

Chain of PRKCD (Q05655 whole entry): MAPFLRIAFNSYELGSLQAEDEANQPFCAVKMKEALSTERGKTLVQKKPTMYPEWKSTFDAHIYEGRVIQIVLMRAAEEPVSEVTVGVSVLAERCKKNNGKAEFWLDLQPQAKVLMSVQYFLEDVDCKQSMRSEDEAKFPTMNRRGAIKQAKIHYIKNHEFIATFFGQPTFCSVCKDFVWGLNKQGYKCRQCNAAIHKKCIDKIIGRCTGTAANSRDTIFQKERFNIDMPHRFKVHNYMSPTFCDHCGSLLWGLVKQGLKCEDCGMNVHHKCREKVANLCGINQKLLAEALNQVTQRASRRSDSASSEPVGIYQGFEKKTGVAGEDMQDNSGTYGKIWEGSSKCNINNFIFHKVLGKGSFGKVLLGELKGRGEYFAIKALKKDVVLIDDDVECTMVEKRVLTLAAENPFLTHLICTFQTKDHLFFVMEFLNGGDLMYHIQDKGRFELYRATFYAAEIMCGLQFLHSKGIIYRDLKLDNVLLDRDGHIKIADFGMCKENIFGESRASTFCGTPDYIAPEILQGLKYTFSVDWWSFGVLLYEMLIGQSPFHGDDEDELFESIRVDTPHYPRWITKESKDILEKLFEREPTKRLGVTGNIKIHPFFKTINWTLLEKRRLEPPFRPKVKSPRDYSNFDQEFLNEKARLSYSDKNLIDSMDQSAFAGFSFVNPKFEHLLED
Chain of TNIK (Q9UKE5 whole entry): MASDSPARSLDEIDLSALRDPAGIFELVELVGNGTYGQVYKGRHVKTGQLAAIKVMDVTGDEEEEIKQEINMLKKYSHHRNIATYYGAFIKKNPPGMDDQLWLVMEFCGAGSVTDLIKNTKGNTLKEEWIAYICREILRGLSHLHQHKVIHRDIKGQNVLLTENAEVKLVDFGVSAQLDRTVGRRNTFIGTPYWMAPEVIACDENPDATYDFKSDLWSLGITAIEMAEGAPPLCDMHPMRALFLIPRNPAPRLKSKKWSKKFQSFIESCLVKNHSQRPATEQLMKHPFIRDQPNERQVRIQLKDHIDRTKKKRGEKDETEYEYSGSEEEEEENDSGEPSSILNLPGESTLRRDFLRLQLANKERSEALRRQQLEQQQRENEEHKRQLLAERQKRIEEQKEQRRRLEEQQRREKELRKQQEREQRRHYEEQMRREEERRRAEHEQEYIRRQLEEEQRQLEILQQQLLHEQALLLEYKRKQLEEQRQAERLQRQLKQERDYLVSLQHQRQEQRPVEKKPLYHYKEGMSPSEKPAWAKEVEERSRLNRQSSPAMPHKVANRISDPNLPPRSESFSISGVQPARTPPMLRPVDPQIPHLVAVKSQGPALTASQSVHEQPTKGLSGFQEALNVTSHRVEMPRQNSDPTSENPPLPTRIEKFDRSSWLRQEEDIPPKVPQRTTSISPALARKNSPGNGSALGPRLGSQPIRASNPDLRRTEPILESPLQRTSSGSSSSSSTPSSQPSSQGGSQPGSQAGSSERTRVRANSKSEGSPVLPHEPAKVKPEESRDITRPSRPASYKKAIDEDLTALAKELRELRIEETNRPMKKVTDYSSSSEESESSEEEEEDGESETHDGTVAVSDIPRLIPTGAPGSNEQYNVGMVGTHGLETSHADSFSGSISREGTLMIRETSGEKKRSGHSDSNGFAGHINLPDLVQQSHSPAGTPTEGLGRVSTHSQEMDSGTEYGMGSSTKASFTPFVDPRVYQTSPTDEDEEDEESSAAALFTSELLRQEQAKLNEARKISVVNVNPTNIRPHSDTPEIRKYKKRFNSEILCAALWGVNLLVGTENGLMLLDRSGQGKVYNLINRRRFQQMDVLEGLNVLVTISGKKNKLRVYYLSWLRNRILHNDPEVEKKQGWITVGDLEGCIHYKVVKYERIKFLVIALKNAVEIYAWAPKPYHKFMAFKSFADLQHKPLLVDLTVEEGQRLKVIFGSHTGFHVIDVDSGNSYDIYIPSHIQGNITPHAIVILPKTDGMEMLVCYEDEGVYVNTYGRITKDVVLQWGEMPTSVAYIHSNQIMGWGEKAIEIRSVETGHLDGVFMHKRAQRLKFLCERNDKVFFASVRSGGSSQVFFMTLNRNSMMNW

SMILES | remaining binding at 1 µM [1] | remaining binding at 1 µM [2] | remaining binding at 1 µM [3] | remaining binding at 1 µM [4] | remaining binding at 1 µM [5] | remaining binding at 1 µM [6] | remaining binding at 1 µM [7] | remaining binding at 1 µM [8] | % control [9] | remaining binding at 1 µM [10] | remaining binding at 1 µM [11] | remaining binding at 1 µM [12] | remaining binding at 1 µM [13] | remaining binding at 1 µM [14] | remaining binding at 1 µM [15] | remaining binding at 1 µM [16] | remaining binding at 1 µM [17] | remaining binding at 1 µM [18] | remaining binding at 1 µM [19] | remaining binding at 1 µM [20] | other results
CCNc1cc(Nc2ccc(C(=O)N3CCC(N4CCOCC4)CC3)cc2OC)nc2[nH]cc(C#N)c12 [Example 18, 4-(ethylamino)-6-((2-methoxy-4-(4-morpholinopiperidine-1-carbonyl)phenyl)amino)-1H-pyrrolo[2,3-b]pyridine-3-carbonitrile] | 75% | 89% | 86% | 80% | 78% | 81% | 85% | 100% | 100% | 99% | 94% | 73% | 92% | 99% | 86% | 80% | 71% | 76% | 100% | 100% | remaining binding at 1 µM [21]: 84%; remaining binding at 1 µM [22]: 76%; remaining binding at 1 µM [23]: 81%; remaining binding at 1 µM [24]: 90%; remaining binding at 1 µM [25]: 78%; remaining binding at 1 µM [26]: 58%; remaining binding at 1 µM [27]: 91%; remaining binding at 1 µM [28]: 6.2%; remaining binding at 1 µM [29]: 60%; remaining binding at 1 µM [30]: 79%; remaining binding at 1 µM [31]: 70%; remaining binding at 1 µM [32]: 98%; remaining binding at 1 µM [33]: 46%; remaining binding at 1 µM [34]: 89%; remaining binding at 1 µM [35]: 89%; remaining binding at 1 µM [36]: 30%; remaining binding at 1 µM [37]: 73%; remaining binding at 1 µM [38]: 100%; remaining binding at 1 µM [39]: 100%
CCNc1cc(Nc2ccc(C(=O)N3CCC(N4CCOCC4)CC3)cc2OC)nc2[nH]cc(C(F)(F)F)c12 [Example 57, (4-((4-(ethylamino)-3-(trifluoromethyl)-1H-pyrrolo[2,3-b]pyridin-6-yl)amino)-3-methoxyphenyl) (4-morpholinopiperidin-1-yl)methanone] | 87% | 94% | 90% | 76% | 87% | 100% | 72% | 100% | 100% | 86% | 100% | 80% | 73% | 93% | 88% | 96% | 73% | 63% | 100% | 97% | remaining binding at 1 µM [21]: 88%; remaining binding at 1 µM [22]: 99%; remaining binding at 1 µM [23]: 90%; remaining binding at 1 µM [24]: 99%; remaining binding at 1 µM [25]: 99%; remaining binding at 1 µM [26]: 85%; remaining binding at 1 µM [27]: 84%; remaining binding at 1 µM [28]: 20%; remaining binding at 1 µM [29]: 95%; remaining binding at 1 µM [30]: 100%; remaining binding at 1 µM [31]: 59%; remaining binding at 1 µM [32]: 98%; remaining binding at 1 µM [33]: 94%; remaining binding at 1 µM [34]: 85%; remaining binding at 1 µM [35]: 100%; remaining binding at 1 µM [36]: 91%; remaining binding at 1 µM [37]: 81%; remaining binding at 1 µM [38]: 100%; remaining binding at 1 µM [39]: 85%

From patent publication US11117892B2, “Pyrrolo-pyridine derivative compound, method for preparing same, and pharmaceutical composition containing same as active ingredient for prevention or treatment of protein kinase-related diseases” (DAEGU-GYEONGBUK MEDICAL INNOVATION FOUNDATION, priority 2017, dated 2021)
